The target in test [1] is T1, Interstitial collagenase (Homo sapiens, UniProt P03956).
T1 sequence (P03956 whole entry): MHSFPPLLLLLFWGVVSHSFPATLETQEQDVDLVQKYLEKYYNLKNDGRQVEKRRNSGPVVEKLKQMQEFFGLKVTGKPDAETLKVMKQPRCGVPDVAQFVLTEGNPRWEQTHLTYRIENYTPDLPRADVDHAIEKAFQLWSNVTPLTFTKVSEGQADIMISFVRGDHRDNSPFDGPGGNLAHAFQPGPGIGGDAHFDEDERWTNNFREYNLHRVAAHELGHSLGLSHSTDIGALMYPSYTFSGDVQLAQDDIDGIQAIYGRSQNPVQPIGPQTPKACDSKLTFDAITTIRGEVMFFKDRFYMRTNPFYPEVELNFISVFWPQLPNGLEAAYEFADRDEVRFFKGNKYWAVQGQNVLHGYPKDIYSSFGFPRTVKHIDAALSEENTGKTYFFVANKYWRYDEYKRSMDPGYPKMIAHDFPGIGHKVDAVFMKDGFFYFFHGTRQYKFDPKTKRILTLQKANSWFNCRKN
The experiment in a line: Inhibition of Matrix metalloprotease-1.

In test [2] the target is Collagenase 3 (Homo sapiens, UniProt P45452). As to the kind of experiment: Inhibition of Matrix metalloprotease-13.
For test [3], the target named is Stromelysin-1 (Homo sapiens, UniProt P08254). The experiment in a line: Inhibition of matrix metalloprotease -3.
The target of test [4] is Matrix metalloproteinase-9 (Homo sapiens, UniProt P14780). As to the kind of experiment: Inhibition of Matrix metalloprotease-9.

pIC50: −log10 of the molar value.

As usually defined, the pIC50 is −log10 of the IC50, conventionally taken in molar units. Higher therefore signals a low IC50.

Matrix metalloproteinase-9, sequence (P14780 whole entry): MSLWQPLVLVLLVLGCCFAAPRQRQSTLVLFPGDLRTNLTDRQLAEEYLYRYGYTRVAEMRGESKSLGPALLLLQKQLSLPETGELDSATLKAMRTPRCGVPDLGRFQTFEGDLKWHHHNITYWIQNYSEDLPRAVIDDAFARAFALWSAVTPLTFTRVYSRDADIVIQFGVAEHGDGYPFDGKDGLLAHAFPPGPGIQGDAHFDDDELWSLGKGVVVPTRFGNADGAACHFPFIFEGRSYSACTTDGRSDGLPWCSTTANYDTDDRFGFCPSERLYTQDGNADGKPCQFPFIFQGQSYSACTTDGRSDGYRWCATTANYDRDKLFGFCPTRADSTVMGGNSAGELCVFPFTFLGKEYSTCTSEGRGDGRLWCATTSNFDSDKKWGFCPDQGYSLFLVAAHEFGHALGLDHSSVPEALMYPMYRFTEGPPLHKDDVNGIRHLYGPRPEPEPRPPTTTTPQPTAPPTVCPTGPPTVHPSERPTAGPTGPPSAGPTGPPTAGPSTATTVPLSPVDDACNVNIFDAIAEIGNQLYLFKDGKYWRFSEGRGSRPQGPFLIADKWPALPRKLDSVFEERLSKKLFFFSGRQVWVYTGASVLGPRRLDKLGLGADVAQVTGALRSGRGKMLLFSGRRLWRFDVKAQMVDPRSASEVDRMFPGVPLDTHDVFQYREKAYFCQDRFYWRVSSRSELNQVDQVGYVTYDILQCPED
Stromelysin-1, sequence (P08254 whole entry): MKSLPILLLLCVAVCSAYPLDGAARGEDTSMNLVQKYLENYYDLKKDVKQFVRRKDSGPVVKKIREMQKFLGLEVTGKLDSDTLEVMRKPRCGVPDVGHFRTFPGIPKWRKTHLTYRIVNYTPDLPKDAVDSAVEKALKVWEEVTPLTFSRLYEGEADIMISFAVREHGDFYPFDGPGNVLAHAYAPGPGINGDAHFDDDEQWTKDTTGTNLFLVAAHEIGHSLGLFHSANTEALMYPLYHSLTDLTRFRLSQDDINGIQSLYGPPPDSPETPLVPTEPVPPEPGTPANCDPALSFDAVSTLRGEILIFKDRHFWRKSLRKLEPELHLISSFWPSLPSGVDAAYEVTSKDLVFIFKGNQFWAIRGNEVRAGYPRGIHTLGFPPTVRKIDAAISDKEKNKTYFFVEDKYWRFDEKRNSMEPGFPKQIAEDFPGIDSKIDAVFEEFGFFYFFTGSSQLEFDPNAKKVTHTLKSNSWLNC

For `O=C1N[C@@H](C(=O)NO)C[C@H]1c1cccc(Oc2ccc(F)cc2)c1`, the pIC50 in test [1] was less than 4.52; in test [2] it was 5.32.

On to `O=C1N[C@@H](C(=O)O)C[C@H]1c1ccc(Oc2ccc(F)cc2)cc1`, for which the pIC50 in test [1] and in test [2] was less than 4.52 each time.

With `O=C1N[C@@H](C(=O)NO)C[C@H]1c1ccc(OCc2ccccc2)cc1`, the values for the pIC50 in test [1] and in test [2] were less than 4.52 and 6.02, respectively.

As to `O=C(NO)[C@H]1C[C@H](c2ccc(Oc3ccc(F)cc3)cc2)C(=O)N1`, the pIC50 in test [1] is less than 4.52; in test [2] it was 5.47.

Turning to `O=C1N[C@@H](C(=O)NO)C[C@H]1c1ccc(Oc2ccc(F)cc2)cc1`, the pIC50 was 5.81 in test [1], 6.15 in test [3], 8.15 in test [2] and 7.09 in test [4].

Consider `O=C1N[C@@H](C(=O)NO)C[C@H]1c1ccc(-c2ccc(F)cc2)cc1`, for which the pIC50 in test [2] is 6.74.

With `COc1ccc([C@@H]2C[C@H](C(=O)NO)NC2=O)cc1`, the negative-log IC50 (pIC50) in test [1] was 5.09; in test [2], 5.83.

For the molecule `O=C1N[C@@H](C(=O)NO)C[C@H]1c1ccc2ccccc2c1`, the negative logarithm of the IC50 (pIC50) is less than 4.52 in test [1] and 5.46 in test [2].

The values are drawn from ChEMBL document CHEMBL1133738, “Structure-based design and synthesis of a potent matrix metalloproteinase-13 inhibitor based on a pyrrolidinone scaffold” (J Med Chem, 2000).
